Key:
Format in all cases: in vivo
[1] = system: Diabrotica Balteata (Corn Root Worm); assay: Example B1: Diabrotica balteata (corn root worm), maize sprouts sprayed, L2 larvae; details: 96 h, application rate of 200 ppm, 4 days after infestation, L2 larvae, read-out: control in at least one of the two categories (mortality or growth inhibition)
Summary of the method: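 Larvae at L2 stage, 6 to 10 per well, feed on dried, spray-treated maize sprouts set on agar. Evaluation after 4 days compares mortality and growth inhibition with untreated samples.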

[2] = system: Chilo suppressalis (Striped Rice Stemborer); assay: Example B3: Chilo suppressalis (striped rice stemborer), artificial diet, L2 larvae; details: 144 h, application rate of 200 ppm, 6 days after infestation, L2 larvae, read-out: control in at least one of the three categories (mortality, anti-feedant effect, or growth inhibition)
Summary of the method: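 Scoring covers mortality, anti-feedant effect and growth inhibition at 6 days post-infestation, relative to untreated diet, with activity defined as at least one category above untreated. Test solutions were aqueous, made from 10'000 ppm DMSO stocks, and applied to artificial diet before drying and infestation with L2 larvae.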

[3] = system: Spodoptera littoralis (Egyptian Cotton Leaf Worm); assay: Example B7: Spodoptera littoralis (Egyptian cotton leaf worm), cotton leaf discs sprayed, L1 larvae; details: foliar, 72 h, application rate of 200 ppm, 3 days after infestation, L1 larvae, read-out: control in at least one of the three categories (mortality, anti-feedant effect, or growth inhibition)
Summary of the method: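 Read-out: mortality, feeding deterrence and growth inhibition, assessed 3 days after infestation relative to untreated samples. Sprayed, dried cotton leaf discs on agar each received five first-instar (L1) larvae; sprays were aqueous solutions prepared from 10′000 ppm DMSO stocks.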

[4] = system: Plutella xylostella (Diamond Back Moth); assay: Example B4: Plutella xylostella (diamond back moth), artificial diet, eggs, 24-well; details: 192 h, application rate of 200 ppm, 8 days after infestation, eggs, read-out: control in at least one of the two categories (mortality or growth inhibition)
Protocol: 24-well microtiter plates with artificial diet were treated with aqueous test solutions prepared from 10′000 ppm DMSO stock solutions by pipetting. After drying, Plutella eggs were pipetted through a plastic stencil onto a gel blotting paper and the plate was closed with it. The samples were assessed for mortality and growth inhibition in comparison to untreated samples 8 days after infestation.

CC(Nc1ncnc2c(Cl)cc(Br)cc12)c1nccnc1-c1ncccn1 (centres unmarked) [P.178, 6-bromo-8-chloro-N-[1-(3-pyrimidin-2-ylpyrazin-2-yl)ethyl]quinazolin-4-amine]
≥ 80%: percent control (mortality or growth inhibition) at 200 ppm [1] | percent control (mortality, anti-feedant effect or growth inhibition) at 200 ppm [2] | percent control (mortality, anti-feedant effect or growth inhibition) at 200 ppm [3] | percent control (mortality or growth inhibition) at 200 ppm [4]

CC(c1ncnn1-c1ccc(Br)cn1)N(C)c1ncnc2c(Br)cc(C(F)(F)F)cc12 (centres unmarked) [P.239, 8-bromo-N-[1-[2-(5-bromo-2-pyridyl)-1,2,4-triazol-3-yl]ethyl]-N-methyl-6-(trifluoromethyl)quinazolin-4-amine]
≥ 80%: percent control (mortality or growth inhibition) at 200 ppm [1] | percent control (mortality, anti-feedant effect or growth inhibition) at 200 ppm [2] | percent control (mortality, anti-feedant effect or growth inhibition) at 200 ppm [3] | percent control (mortality or growth inhibition) at 200 ppm [4]

CC(c1nccnc1-c1ncccn1)N(CC1CC1)c1ncnc2c(C(F)(F)F)cc(C(F)(F)F)cc12 (centres unmarked) [P.108, N-(cyclopropylmethyl)-N-[1-(3-pyrimidin-2-ylpyrazin-2-yl)ethyl]-6,8-bis(trifluoromethyl)quina-zolin-4-amine]
≥ 80%: percent control (mortality or growth inhibition) at 200 ppm [1] | percent control (mortality, anti-feedant effect or growth inhibition) at 200 ppm [2] | percent control (mortality, anti-feedant effect or growth inhibition) at 200 ppm [3] | percent control (mortality or growth inhibition) at 200 ppm [4]

CC(c1ncnn1-c1ccc(C#N)cn1)N(C)c1ncnc2c(Br)cc(Br)cc12 (centres unmarked) [P.257, 6-[5-[1-[(6,8-dibromoquinazolin-4-yl)-methyl-amino]ethyl]-1,2,4-triazol-1-yl]pyridin-3-carbonitrile]
≥ 80%: percent control (mortality or growth inhibition) at 200 ppm [1] | percent control (mortality, anti-feedant effect or growth inhibition) at 200 ppm [2] | percent control (mortality, anti-feedant effect or growth inhibition) at 200 ppm [3] | percent control (mortality or growth inhibition) at 200 ppm [4]

CC(Nc1ncnc2c(C(F)(F)F)cc(Br)cc12)c1nccnc1-c1ccc(C#N)cn1 (centres unmarked) [P.119, 6-[3-[1-[[6-bromo-8-(trifluoromethyl)quinazolin-4-yl]amino]ethyl]pyrazin-2-yl]pyridine-3-carbonitrile]
≥ 80%: percent control (mortality or growth inhibition) at 200 ppm [1] | percent control (mortality, anti-feedant effect or growth inhibition) at 200 ppm [2] | percent control (mortality, anti-feedant effect or growth inhibition) at 200 ppm [3] | percent control (mortality or growth inhibition) at 200 ppm [4]

CC(Nc1ncnc2c(Br)cc(Br)cc12)c1nccnc1-c1ncccn1 (centres unmarked) [P.38, 6,8-dibromo-N-[1-(3-pyrimidin-2-ylpyrazin-2-yl)ethyl]quinazolin-4-amine]
≥ 80%: percent control (mortality or growth inhibition) at 200 ppm [1] | percent control (mortality, anti-feedant effect or growth inhibition) at 200 ppm [2] | percent control (mortality, anti-feedant effect or growth inhibition) at 200 ppm [3] | percent control (mortality or growth inhibition) at 200 ppm [4]

CC(Nc1ncnc2c(Cl)cc(Br)cc12)c1ncnn1-c1ncccn1 (centres unmarked) [P.159, 6-bromo-8-chloro-N-[1-(2-pyrimidin-2-yl-1,2,4-triazol-3-yl)ethyl]quinazolin-4-amine]
≥ 80%: percent control (mortality or growth inhibition) at 200 ppm [1] | percent control (mortality, anti-feedant effect or growth inhibition) at 200 ppm [2] | percent control (mortality, anti-feedant effect or growth inhibition) at 200 ppm [3] | percent control (mortality or growth inhibition) at 200 ppm [4]

C[C@H](Nc1ccnc2c(C(F)(F)F)cc(C(F)(F)F)cc12)c1ncnn1-c1ccc(C#N)cn1 [P.251, 6-[5-[(1S)-1-[[6,8-bis(trifluoromethyl)-4-quinolyl]amino]ethyl]-1,2,4-triazol-1-yl]pyridine-3-carbonitrile]
≥ 80%: percent control (mortality or growth inhibition) at 200 ppm [1] | percent control (mortality, anti-feedant effect or growth inhibition) at 200 ppm [2] | percent control (mortality, anti-feedant effect or growth inhibition) at 200 ppm [3] | percent control (mortality or growth inhibition) at 200 ppm [4]

C[C@@H](c1ncnn1-c1ncccn1)N(C)c1c(F)cnc2c(C(F)(F)F)cc(C(F)(F)F)cc12 [P.176, 3-fluoro-N-methyl-N-[(1S)-1-(2-pyrimidin-2-yl-1,2,4-triazol-3-yl)ethyl]-6,8-bis(trifluoromethyl)quinolin-4-amine]
≥ 80%: percent control (mortality or growth inhibition) at 200 ppm [1] | percent control (mortality, anti-feedant effect or growth inhibition) at 200 ppm [2] | percent control (mortality, anti-feedant effect or growth inhibition) at 200 ppm [3] | percent control (mortality or growth inhibition) at 200 ppm [4]

CC(c1ncnn1-c1ccc(Br)cn1)N(C)c1ncnc2c(Cl)cc(C(F)(F)F)cc12 (centres unmarked) [P.240, N-[1-[2-(5-bromo-2-pyridyl)-1,2,4-triazol-3-yl]ethyl]-8-chloro-N-methyl-6-(trifluoromethyl)quinazolin-4-amine]
≥ 80%: percent control (mortality or growth inhibition) at 200 ppm [1] | percent control (mortality, anti-feedant effect or growth inhibition) at 200 ppm [2] | percent control (mortality, anti-feedant effect or growth inhibition) at 200 ppm [3] | percent control (mortality or growth inhibition) at 200 ppm [4]

CC(c1nccnc1-c1ccc(OC(F)F)cn1)N(C)c1ncnc2c(C(F)(F)F)cc(C(F)(F)F)cc12 (centres unmarked) [P.110, N-[1-[3-[5-(difluoromethoxy)-2-pyridyl]pyrazin-2-yl]ethyl]-N-methyl-6,8-bis(trifluoromethyl)quina-zolin-4-amine]
≥ 80%: percent control (mortality or growth inhibition) at 200 ppm [1] | percent control (mortality, anti-feedant effect or growth inhibition) at 200 ppm [2] | percent control (mortality, anti-feedant effect or growth inhibition) at 200 ppm [3] | percent control (mortality or growth inhibition) at 200 ppm [4]

CC(c1nccnc1-c1ccc(C#N)cn1)N(C)c1ncnc2c(Br)cc(C(F)(F)F)cc12 (centres unmarked) [P.124, 6-[3-[1-[[8-bromo-6-(trifluoromethyl)quinazolin-4-yl]-methyl-amino]ethyl]pyrazin-2-yl]pyridine-3-carbonitrile]
≥ 80%: percent control (mortality or growth inhibition) at 200 ppm [1] | percent control (mortality, anti-feedant effect or growth inhibition) at 200 ppm [2] | percent control (mortality, anti-feedant effect or growth inhibition) at 200 ppm [3] | percent control (mortality or growth inhibition) at 200 ppm [4]

CC(c1ncnn1-c1ccc(Br)cn1)N(C)c1ncnc2c(C(F)(F)F)cc(Br)cc12 (centres unmarked) [P.237, 6-bromo-N-[1-[2-(5-bromo-2-pyridyl)-1,2,4-triazol-3-yl]ethyl]-N-methyl-8-(trifluoromethyl)quinazolin-4-amine]
≥ 80%: percent control (mortality or growth inhibition) at 200 ppm [1] | percent control (mortality, anti-feedant effect or growth inhibition) at 200 ppm [2] | percent control (mortality, anti-feedant effect or growth inhibition) at 200 ppm [3] | percent control (mortality or growth inhibition) at 200 ppm [4]

CC(c1nccnc1-c1ccc(C#N)cn1)N(C)c1ncnc2c(Cl)cc(C(F)(F)F)cc12 (centres unmarked) [P.122]
≥ 80%: percent control (mortality or growth inhibition) at 200 ppm [1] | percent control (mortality, anti-feedant effect or growth inhibition) at 200 ppm [2] | percent control (mortality, anti-feedant effect or growth inhibition) at 200 ppm [3] | percent control (mortality or growth inhibition) at 200 ppm [4]

CC(Nc1ncnc2c(C(F)(F)F)cc(Br)cc12)c1nccnc1-n1nccn1 (centres unmarked) [P.33, 6-bromo-N-[1-[3-(triazol-2-yl)pyrazin-2-yl]ethyl]-8-(trifluoromethyl)quinazolin-4-amine]
≥ 80%: percent control (mortality or growth inhibition) at 200 ppm [1] | percent control (mortality, anti-feedant effect or growth inhibition) at 200 ppm [2] | percent control (mortality, anti-feedant effect or growth inhibition) at 200 ppm [3] | percent control (mortality or growth inhibition) at 200 ppm [4]

CC(Nc1ncnc2c(Br)cc(Cl)cc12)c1nccnc1-n1nccn1 (centres unmarked) [P.173, 8-bromo-6-chloro-N-[1-[3-(triazol-2-yl)pyrazin-2-yl]ethyl]quinazolin-4-amine]
≥ 80%: percent control (mortality or growth inhibition) at 200 ppm [1] | percent control (mortality, anti-feedant effect or growth inhibition) at 200 ppm [2] | percent control (mortality, anti-feedant effect or growth inhibition) at 200 ppm [3] | percent control (mortality or growth inhibition) at 200 ppm [4]

CC(c1ncnn1-c1ncccn1)N(C)c1nccc2c(C(F)(F)F)cc(C(F)(F)F)cc12 (centres unmarked) [P.250, N-methyl-N-[1-(2-pyrimidin-2-yl-1,2,4-triazol-3-yl)ethyl]-5,7-bis(trifluoromethyl)isoquino-lin-1-amine]
≥ 80%: percent control (mortality or growth inhibition) at 200 ppm [1] | percent control (mortality, anti-feedant effect or growth inhibition) at 200 ppm [2] | percent control (mortality, anti-feedant effect or growth inhibition) at 200 ppm [3] | percent control (mortality or growth inhibition) at 200 ppm [4]

C[C@@H](c1ncnn1-c1ncccn1)N(C)c1ccnc2c(Br)cc(C(F)(F)F)cc12 [P.255, 8-bromo-N-methyl-N-[(1S)-1-(2-pyrimidn-2-yl-1,2,4-triazol-3-yl)ethyl]-6-(trifluoromethyl)quinolin-4-amine]
≥ 80%: percent control (mortality or growth inhibition) at 200 ppm [1] | percent control (mortality, anti-feedant effect or growth inhibition) at 200 ppm [2] | percent control (mortality, anti-feedant effect or growth inhibition) at 200 ppm [3] | percent control (mortality or growth inhibition) at 200 ppm [4]

CC(c1nccnc1-c1ncccn1)N(CC1CC1)c1ncnc2c(Br)cc(C(F)(F)F)cc12 (centres unmarked) [P.99, 8-bromo-N-(cyclopropylmethyl)-N-[1-(3-pyrimidin-2-ylpyrazin-2-yl)ethyl]-6-(trifluoromethyl)quinazolin-4-amine]
≥ 80%: percent control (mortality or growth inhibition) at 200 ppm [1] | percent control (mortality, anti-feedant effect or growth inhibition) at 200 ppm [2] | percent control (mortality, anti-feedant effect or growth inhibition) at 200 ppm [3] | percent control (mortality or growth inhibition) at 200 ppm [4]

CC(c1nccnc1-n1nccn1)N(C)c1ncnc2c(C(F)(F)F)cc(Br)cc12 (centres unmarked) [P.105, 6-bromo-N-methyl-N-[1-[3-(triazol-2-yl)pyrazin-2-yl]ethyl]-8-(trifluoromethyl)quinazolin-4-amine]
≥ 80%: percent control (mortality or growth inhibition) at 200 ppm [1] | percent control (mortality, anti-feedant effect or growth inhibition) at 200 ppm [2] | percent control (mortality, anti-feedant effect or growth inhibition) at 200 ppm [3] | percent control (mortality or growth inhibition) at 200 ppm [4]

From US20230002359A1, “PESTICIDALLY ACTIVE FUSED BICYCLIC HETEROAROMATIC COMPOUNDS” (priority 2019, published 2023)
